Reference: patent US20100173888A1 (Pfizer Inc, priority 2008, published 2010)

These molecules were tested against T1, human recombinant H-PGDS (Homo sapiens, UniProt O60760) (assay: Fluorescence intensity h-PGDS TBA enzyme assay (PGH2 depletion, MDA/TBA fluorescence)). Settings: 1:175,000 human recombinant H-PGDS, 42 second reaction, 3-fold serial dilutions, highest concentration typically 1 μM.
Assay type: biochemical
How it was run: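 Recombinant human H-PGDS preincubated with inhibitor 10 min at room temperature in pH 8.0 Tris, MgCl2, IgG, 2.5 mM glutathione, 0.5% DMSO. Reaction with 5.0 μM PGH2 stopped at 42 s with FeCl2/citric acid; MDA–TBA fluorescence (ex 530/em 565 nm) read after 70° C. IC50 by 4-parameter fit, 11 concentrations.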

T1 sequence (O60760 whole entry): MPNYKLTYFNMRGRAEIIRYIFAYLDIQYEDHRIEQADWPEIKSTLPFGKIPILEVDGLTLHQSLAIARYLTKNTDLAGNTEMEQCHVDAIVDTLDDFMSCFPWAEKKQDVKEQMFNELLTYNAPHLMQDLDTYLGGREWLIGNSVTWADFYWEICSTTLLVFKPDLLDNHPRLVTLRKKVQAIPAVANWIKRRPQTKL

Structure (SMILES)	IC50
CC(C)OCC1(O)CCC(NC(=O)c2ccc(-c3cccc(F)c3)nc2)CC1 (centres unmarked) [Example 226, 6-(3-Fluorophenyl)-N-[4-hydroxy-4-(isopropoxymethyl)cyclohexyl]nicotinamide]	13.2 nM
O=C(NC1CCC(O)(CO)CC1)c1ccc(-c2cccc(F)c2)nc1 (centres unmarked) [Example 227, 6-(3-Fluorophenyl)-N-[4-hydroxy-4-(hydroxymethyl)cyclohexyl]nicotinamide]	23.8 nM
CCCOCC1(O)CCC(NC(=O)c2ccc(-c3cccc(F)c3)nc2)CC1 (centres unmarked) [Example 228, 6-(3-Fluorophenyl)-N-[4-hydroxy-4-(propoxymethyl)cyclohexyl]nicotinamide]	17.5 nM
CNC(=O)OC(C)(C)[C@H]1CC[C@H](NC(=O)c2ccc(-c3cccc(F)c3)nc2)CC1 [Example 229, 1-[trans-4-({[6-(3-Fluorophenyl)pyridin-3-yl]carbonyl}amino)cyclohexyl]-1-methylethyl methylcarbamate]	2.5 nM
CN1CCN(C(=O)[C@@]2(C)CCC[C@@H](NC(=O)c3ccc(-c4cccc(F)c4)nc3)C2)CC1 [Example 230, 6-(3-Fluorophenyl)-N-{(1R,3S)-3-methyl-3-[(4-methylpiperazin-1-yl)carbonyl]cyclohexyl}nicotinamide]	37.3 nM
COC1(C(C)O)CCC(NC(=O)c2ccc(-c3cccc(F)c3)nc2)CC1 (centres unmarked) [Example 232, 6-(3-Fluorophenyl)-N-[4-(1-hydroxyethyl)-4-methoxycyclohexyl]nicotinamide]	31.2 nM
CN(C)C(=O)N[C@H]1CC[C@@H](NC(=O)c2ccc(-c3cccc(F)c3)nc2)CC1 [Example 234, N-{cis-4-[(Dimethylcarbamoyl)amino]cyclohexyl}-6-(3-fluorophenyl)nicotinamide]	11 nM
COCC1(O)CCC(NC(=O)c2ccc(-c3cccc(F)c3)nc2)CC1 (centres unmarked) [Example 235, 6-(3-Fluorophenyl)-N-[4-hydroxy-4-(methoxymethyl)cyclohexyl]nicotinamide]	11.8 nM
CNC(=O)N[C@H]1CC[C@@H](NC(=O)c2ccc(-c3cccc(F)c3)nc2)CC1 [Example 236, 6-(3-Fluorophenyl)-N-{cis-4-[(methylcarbamoyl)amino]cyclohexyl}nicotinamide]	5.7 nM
Cc1noc(C[C@H]2CC[C@H](NC(=O)c3ccc(-c4cccc(F)c4)nc3)CC2)n1 [Example 261, 6-(3-Fluorophenyl)-N-[trans 4-(3-methyl-[1,2,4]oxadiazol-5-ylmethyl)cyclohexyl]nicotinamide]	4 nM
CN1CCN(C(=O)C2(C#N)CCCC(NC(=O)c3ccc(-c4cccc(F)c4)nc3)C2)CC1 (centres unmarked) [Example 263, N-{3-Cyano-3-[(4-methylpiperazin-1-yl)carbonyl]cyclohexyl}-6-(3-fluorophenyl)nicotinamide]	5 nM
CCN1CCN(C(=O)C2(C#N)CCCC(NC(=O)c3ccc(-c4cccc(F)c4)nc3)C2)CC1 (centres unmarked) [Example 264, N-{3-Cyano-3-[(4-ethylpiperazin-1-yl)carbonyl]cyclohexyl}-6-(3-fluorophenyl)nicotinamide]	9.2 nM
N#CC1(C(=O)N2CCOCC2)CCCC(NC(=O)c2ccc(-c3cccc(F)c3)nc2)C1 (centres unmarked) [Example 265, N-[3-Cyano-3-(morpholin-4-ylcarbonyl)cyclohexyl]-6-(3-fluorophenyl)nicotinamide]	2.8 nM
CN(C)C(=O)C1(C#N)CCCC(NC(=O)c2ccc(-c3cccc(F)c3)nc2)C1 (centres unmarked) [Example 266, N-[3-Cyano-3-(dimethylcarbamoyl)cyclohexyl]-6-(3-fluorophenyl)nicotinamide]	10.6 nM
CNC(=O)N[C@H]1CC[C@H](NC(=O)c2ccc(-c3cccc(F)c3)nc2)CC1 [Example 270]	9.1 nM
CN(C)C(=O)N[C@H]1CC[C@H](NC(=O)c2ccc(-c3cccc(F)c3)nc2)CC1 [Example 271]	18 nM
CNC(=O)N(C)[C@H]1CC[C@H](NC(=O)c2ccc(-c3cccc(F)c3)nc2)CC1 [Example 272, 6-(3-Fluorophenyl)-N-{trans-4-[methyl(methylcarbamoyl)amino]cyclohexyl}nicotinamide]	11 nM
Cc1nnc(C[C@H]2CC[C@@H](NC(=O)c3ccc(-c4cccc(F)c4)nc3)CC2)o1 [Example 273, 6-(3-Fluorophenyl)-N-{cis-4-[(5-methyl-1,3,4-oxadiazolyl-2-yl)methyl]cyclohexyl}nicotinamide]	5.4 nM
CC(C)(O)[C@H]1CC[C@@H](NC(=O)c2ccc(-c3cccc(F)c3)nc2)CC1 [Example 275, 6-(3-Fluorophenyl)-N-[cis-4-(1-hydroxy-1-methylethyl)cyclohexyl]nicotinamide]	81.8 nM

Now from value to molecule:

IC50	Structure (SMILES)
16.2 nM	C[C@H](O)C(=O)N[C@H]1CCC[C@H](NC(=O)c2ccc(-c3cccc(F)c3)nc2)C1 [Example 246, 6-(3-Fluorophenyl)-N-{trans-3-{[(2S)-2-hydroxypropanoyl]amino}cyclohexyl]nicotinamide]
44.1 nM	O=C(N[C@@H]1CCC[C@H](CNC(=O)[C@@H]2CCCN2)C1)c1ccc(-c2cccc(F)c2)nc1 [Example 259]
59.9 nM	O=C(N[C@H]1CCC[C@@H](C(=O)N2CCC(O)CC2)C1)c1ccc(-c2cccc(F)c2)nc1 [Example 260, 6-(3-Fluorophenyl)-N-{(1S,3R)-3-[(4-hydroxypiperidin-1-yl)carbonyl]cyclohexyl}nicotinamide]
13.7 nM	CN1CCN(C(=O)C[C@H]2CC[C@@H](NC(=O)c3ccc(-c4cccc(F)c4)nc3)CC2)CC1 [Example 274, 6-(3-Fluorophenyl)-N-{cis-4-[2-(-methylpiperazin-1-yl)-2-oxoethyl]cyclohexyl}nicotinamide]

The molecules below were run against T1, human recombinant H-PGDS (assay: Slightly modified fluorescence intensity h-PGDS TBA enzyme assay (1:40,000 enzyme, 40 second reaction, 1/2 log dilutions, top concentration typically 10 μM)). Settings: slightly modified assay: 1:40,000 human recombinant H-PGDS.
Assay type: biochemical
Procedure: Fluoresecence Intensity h-PGDSTBA Enzyme Assay
Prostaglandin D Synthase (PGDS) converts the substrate prostaglandin H2 (PGH2) to prostaglandin D2. The depletion of PGH2 was measured via an Fe(II) reduction of the remaining PGH2 to malondialdehyde (MDA) and 12-HHT. The enzyme assay is based on the quantitative formation of a fluorescent complex from the non-fluorescent compounds MDA and 2-thiobarbituric acid (TBA), substantially as described in U.S. patent application publication US-2004/152148 by Lombardt.
Examples 6-8, 11a-16, 23, 26-47, 49-103, 105-113, 115-118 and 126-128 were tested in a slightly modified assay: The enzyme assay (30 μls during biological process) contained 100 mM Trizma pH 8.0, 100 μM MgCl2, 0.1 mg/ml IgG Rabbit serum, 5.0 μM PGH2 (Cayman; ethanol solution, #17020), 2.5 mM L-Glutathione (Sigma; reduced form #G4251), 1:40,000 human recombinant H-PGDS (from 1 mg/ml), 0.5% DMSO and inhibitor (varying concentration). 3 μls of diluted inhibitor (dissolved in DMSO) was plated into a 384-well assay plate followed by a 24 μl addition of an enzyme solution containing h-PGDS, Trizma, MgCl2, IgG and L-Glutathione. After pre-incubation of inhibitor and enzyme solution for 10 minutes at room temperature, the reaction was initiated with a 3 μl addition of substrate solution in 10 mM HCl. The reaction was terminated after 40 second by the addition of 3 μl stop buffer containing FeCl2 and citric acid. After addition of 45 μls of TBA plates were heated for one hour in a 70° C. oven. Plates were cooled at room temperature overnight and read on a plate reader the next day with excitation @ 530 nm and emission @ 560 nm. IC50' s of inhibitors were calculated with a 4-parameter fit using 11 inhibitor concentrations in duplicate with ½ log serial dilutions. Controls on each plate included no inhibitor (zero % effect) and an inhibitor 500-fold in excess of its' IC50 (100% effect). The highest inhibitor concentration tested was typically 10 μM.

IC50	Structure (SMILES)
64.6 nM	N[C@H]1CCCC[C@@H]1NC(=O)[C@@H]1CCC[C@H](NC(=O)c2ccc(-c3cccc(F)c3)nc2)C1 (mixture of isomers) [Example 64B, N-[cis-3-{[(1S,2S)-2-aminocyclohexyl]carbamoyl}cyclohexyl]-6-(3-fluorophenyl)nicotinamide]
47 nM	N[C@@H]1CCCC[C@H]1NC(=O)[C@@H]1CCC[C@H](NC(=O)c2ccc(-c3cccc(F)c3)nc2)C1 (mixture of isomers) [Example 64C, N-[cis-3-{[(1R,2R)-2-aminocyclohexyl]carbamoyl}cyclohexyl]-6-(3-fluorophenyl)nicotinamide]
17.2 nM	O=C(N[C@H]1CCC[C@@H](C(=O)N[C@@H]2CCNC2=O)C1)c1ccc(-c2cccc(F)c2)nc1 (mixture of isomers) [Example 64G, 6-(3-fluorophenyl)-N-[cis-3-{[(3R)-2-oxopyrrolidin-3-yl]carbamoyl}cyclohexyl]nicotinamide]
13 nM	O=C(N[C@H]1CCC[C@@H](C(=O)N[C@H]2CCNC2=O)C1)c1ccc(-c2cccc(F)c2)nc1 (mixture of isomers) [Example 64H, 6-(3-fluorophenyl)-N-[cis-3-{[(3S)-2-oxopyrrolidin-3-yl]carbamoyl}cyclohexyl]nicotinamide]
10.9 nM	O=C(N[C@H]1CCC[C@@H](C(=O)N[C@@H]2CCOC2)C1)c1ccc(-c2cccc(F)c2)nc1 (mixture of isomers) [Example 64K, 6-(3-fluorophenyl)-N-{cis-3-[(3R)-tetrahydrofuran-3-ylcarbamoyl]cyclohexyl}nicotinamide]
255 nM	N[C@H]1CCCC[C@H]1NC(=O)[C@@H]1CCC[C@H](NC(=O)c2ccc(-c3cccc(F)c3)nc2)C1 (mixture of isomers) [Example 64L, N-[(1S,3R)-3-{[cis-2-aminocyclohexyl]carbamoyl}cyclohexyl]-6-(3-fluorophenyl)nicotinamide]
